Experimental data published in US10662194B2, “Substituted 6-anilino-9-heterocyclylpurine derivatives for inhibition of plant stress” (UNIVERZITA PALACKEHO V OLOMOUCI, priority 2014, dated 2020).
Marks after values point to notes of the source that are not given here.

Key:
[1] = test system: maize hybrides Amadeo and Zidane; experiment: Seed coating, shoot biomass of silage maize (field experiment); format: in vivo
Experimental: Based on the results discussed in previous Example 25, field plot experiments were performed on two different locations (Kroměříž Czech Republic; Olomouc, Czech Republic) in years 2012 and 2013 to evaluate the effect of seed coating with compound 12 on biomass formation of maize. In
the season 2012 the seeds of maize (hybrid Amadeo; KWS, FAO 230) were coated with 10 and 50 μM water solution of compound 12 (8 L of solution per 1000 kg of seeds). The seeds were dried and then sown in the sowing rate 90.000 seeds per hectare in 4 replications per each variant in randomized positions (each replication was 10 square meter plot). The plants were harvested when reached the stage of 33-34% of dry mass. The plants were then analyzed for their moisture and standardized dry mass.
The experiment was repeated in the season 2013 with 50 μM concentration of compound 12 in the same experimental design with maize hybrid Zidane (KWS, FAO 250).

[2] = test system: Arabidopsis (ecotype Col-0); experiment: Drenching application, morphological and yield traits of Arabidopsis in soil; format: in vivo
Experimental: To test the effect on wild-type plants Arabidopsis (ecotype Col-0) was grown in soil in controlled conditions in a growth chambre (16 hours light/8 hours dark; light intensity 120 […]; 22° C.; 60% humidity). In the stage of app. the middle of the principal growth stage 1 and the beginning of principal growth stage 5 (according to Arabidopsis growth stages described by Boyes et al., 2001) 1-10 mL of the compound 12 was applied regulary every third day in 0.1 and 1 μM concentration in different application rates (experiment 1-1 mL of 1 μM compound 12 water solution 12-times; experiment 2-10 mL of 0.1 and 1 μM compound 12 water solution 1-, 3- and 5-times) by drenching to each plant pot. DMSO (0.01%) was used as a solvent control. The plants were grown till the end of the generative stage and then morphological parametres (primary inflorescence stem length, number of auxiliary branches, number of lateral branches, fresh shoot biomass, number of flowers, number of siliques) and the seed yield were recorded.

## COc1cccc(Nc2nc(Cl)nc3c2ncn3C2CCCCO2)c1 (stereo not drawn) [compound 12, 2-chloro-6-(3-methoxyanilino)-9-(tetrahydropyran-2-yl)purine]
[1]; 10 μM, Kroměříž, 2012
  Absolute dry matter yield: 23.06 t/ha
  Absolute green matter yield: 52.19 t/ha
  Height before harvest: 276.6 cm
  Height before harvest (% of control): 101.0 % of control
  Relative dry matter yield (% of control): 110.85 % of control
[1]; 10 μM, Olomouc, 2012
  Absolute dry matter yield: 17.01 t/ha
  Absolute green matter yield: 43.20 t/ha
  Height before harvest: 237.3 cm
  Height before harvest (% of control): 98.3 % of control
  Relative dry matter yield (% of control): 110.94 % of control
[1]; 10 μM, counted from 2 trials
  average silage yield counted from all trials: 110.9%
[1]; 50 μM, Kroměříž, 2012
  Absolute dry matter yield: 22.18 t/ha
  Absolute green matter yield: 49.52 t/ha
  Height before harvest: 273.5 cm
  Height before harvest (% of control): 99.8 % of control
  Relative dry matter yield (% of control): 106.63 % of control
[1]; 50 μM, Kroměříž, 2013
  Absolute dry matter yield: 22.33 t/ha
  Absolute green matter yield: 66.47 t/ha
  Relative dry matter yield (% of control): 107.82* % of control
[1]; 50 μM, Olomouc, 2012
  Absolute dry matter yield: 17.80 t/ha
  Absolute green matter yield: 44.31 t/ha
  Height before harvest: 235.8 cm
  Height before harvest (% of control): 97.7 % of control
  Relative dry matter yield (% of control): 116.06 % of control
[1]; 50 μM, Olomouc, 2013
  Absolute dry matter yield: 19.23 t/ha
  Absolute green matter yield: 68.78 t/ha
  Height before harvest: 246.4 cm
  Height before harvest (% of control): 100.8 % of control
  Relative dry matter yield (% of control): 101.33 % of control
[1]; 50 μM, counted from 3 trials
  average silage yield counted from all trials: 105.3%
[1]; seed treatment, all field plot experiments
  effect on the plant height: without any effect on the plant height
[2]; 0.1 μM, application rate 1x
  No. of auxiliary branches: 4.06 ± 1.3
  No. of auxiliary branches (% of control): (113%)
  No. of flowers: 116.12 ± 70
  No. of flowers (% of control): (153%)*
  No. of lateral branches: 8.59 ± 3.1
  No. of lateral branches (% of control): (182%)***
  No. of siliques: 133.94 ± 47
  No. of siliques (% of control): (100%)
  fresh shoot biomass: 1.18 ± 0.4 g
  fresh shoot biomass (% of control): (108%)
  primary inflorescence stem length: 32.78 ± 5.5 cm
  primary inflorescence stem length (% of control): (98%)
  seed yield per plant: 0.30 ± 0.1 g
  seed yield per plant (% of control): (102%)
[2]; 0.1 μM, application rate 3x
  No. of auxiliary branches: 3.82 ± 0.6
  No. of auxiliary branches (% of control): (106%)
  No. of flowers: 91.23 ± 50.1
  No. of flowers (% of control): (120%)
  No. of lateral branches: 8.35 ± 3.3
  No. of lateral branches (% of control): (177%)***
  No. of siliques: 154.29 ± 25.6
  No. of siliques (% of control): (115%)
  fresh shoot biomass: 1.16 ± 0.2 g
  fresh shoot biomass (% of control): (106%)
  primary inflorescence stem length: 39.6 ± 3.8 cm
  primary inflorescence stem length (% of control): (119%)***
  seed yield per plant: 0.31 ± 0.1 g
  seed yield per plant (% of control): (106%)
[2]; 0.1 μM, application rate 5x
  No. of auxiliary branches: 3.94 ± 1.1
  No. of auxiliary branches (% of control): (109%)
  No. of flowers: 99.59 ± 59.3
  No. of flowers (% of control): (131%)
  No. of lateral branches: 9.82 ± 4.4
  No. of lateral branches (% of control): (208%)***
  No. of siliques: 141.24 ± 31.7
  No. of siliques (% of control): (105%)
  fresh shoot biomass: 1.18 ± 0.3 g
  fresh shoot biomass (% of control): (108%)
  primary inflorescence stem length: 38.61 ± 5.2 cm
  primary inflorescence stem length (% of control): (116%)***
  seed yield per plant: 0.35 ± 0.1 g
  seed yield per plant (% of control): (120%)
[2]; 1 μM, application rate 1x
  No. of auxiliary branches: 4.29 ± 1.5
  No. of auxiliary branches (% of control): (119%)
  No. of flowers: 139.65 ± 51.7
  No. of flowers (% of control): (184%)***
  No. of lateral branches: 13.35 ± 4.7
  No. of lateral branches (% of control): (283%)***
  No. of siliques: 134.82 ± 31.1
  No. of siliques (% of control): (100%)
  fresh shoot biomass: 1.17 ± 0.3 g
  fresh shoot biomass (% of control): (107%)
  primary inflorescence stem length: 32.66 ± 3.8 cm
  primary inflorescence stem length (% of control): (98%)
  seed yield per plant: 0.37 ± 0.1 g
  seed yield per plant (% of control): (126%)
[2]; 1 μM, application rate 3x
  No. of auxiliary branches: 4.29 ± 1.1
  No. of auxiliary branches (% of control): (119%)*
  No. of flowers: 118.53 ± 36.6
  No. of flowers (% of control): (156%)***
  No. of lateral branches: 13.50 ± 3.9
  No. of lateral branches (% of control): (286%)***
  No. of siliques: 155.29 ± 44.1
  No. of siliques (% of control): (116%)
  fresh shoot biomass: 1.23 ± 0.3 g
  fresh shoot biomass (% of control): (113%)
  primary inflorescence stem length: 39.07 ± 3.2 cm
  primary inflorescence stem length (% of control): (117%)***
  seed yield per plant: 0.36 ± 0.1 g
  seed yield per plant (% of control): (122%)
[2]; 1 μM, application rate 5x
  No. of auxiliary branches: 4.50 ± 1.3
  No. of auxiliary branches (% of control): (125%)
  No. of flowers: 143.56 ± 66.3
  No. of flowers (% of control): (189%)***
  No. of lateral branches: 16.44 ± 6.1
  No. of lateral branches (% of control): (349%)***
  No. of siliques: 220.00 ± 37.4
  No. of siliques (% of control): (164%)***
  fresh shoot biomass: 1.81 ± 0.3 g
  fresh shoot biomass (% of control): (166%)***
  primary inflorescence stem length: 44.66 ± 5.9 cm
  primary inflorescence stem length (% of control): (134%)***
  seed yield per plant: 0.33 ± 0.1 g
  seed yield per plant (% of control): (111%)
[2]; experiment 1: 1 mL of 1 μM, 12-times, drenching, FIG. 8
  overall shoot biomass: stimulation of the overall shoot biomass
[2]; experiment 2, higher doses
  increase of fresh shoot biomass compared to control: 6-22%
  increase of number of auxiliary branches compared to control: 6-25%
  increase of number of flowers compared to control: 20-89%
  increase of number of lateral branches compared to control: 77-249%
  increase of number of siliques compared to control: 5-66%
  increase of primary inflorescence stem length compared to control: 16-34%
  increase of seed yield compared to control: 6-26%
